Measurements from US8927500B2, “Peptidomimetic macrocycles” (Aileron Therapeutics, Inc., priority 2012, dated 2015).
Where a SMILES comes first, the peptide text is derived from it. Bridges are numbered along the chain shown (N, C = ends). [ ]: non-standard residue; d: D form. Phe(4-COOH) = N[C@@H](Cc1ccc(C(=O)O)cc1)C(=O)O; R8 = C=CCCCCCC[C@@](C)(N)C(=O)O; Cba = N[C@@H](CC1CCC1)C(=O)O; S5 = C=CCCC[C@](C)(N)C(=O)O

Tests used:
MDMX = target: T1, MDMX (Homo sapiens, UniProt O15151); experiment: Competitive fluorescence polarization assay for MDMX; format: binding; conditions: competitive FP assay; for IC50: read-out: IC50 (MDMX); for Ki: read-out: Ki (MDMX)
T1 sequence (O15151 1-125): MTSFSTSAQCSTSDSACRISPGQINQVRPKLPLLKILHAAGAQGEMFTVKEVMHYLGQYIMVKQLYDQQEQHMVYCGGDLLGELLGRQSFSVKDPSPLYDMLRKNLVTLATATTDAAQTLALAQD
Description: Dilute MDMX (In-house, 40 kD) into FP buffer (High salt buffer-200 mM Nacl, 5 mM CHAPS, pH 7.5.) to make 300 nM (2×) working stock solution. • 2. […] Dilute 1 mM (in 100% DMSO) of FAM labeled linear peptide with DMSO to 100 μM (dilution 1:10). Then, dilute from 100 μM to 10 μM with water (dilution 1:10) and then dilute with FP buffer from 10 μM to 40 nM (dilution 1:250). This is the working solution which will be a 10 nM concentration in well (dilution 1:4). Keep the diluted FAM labeled peptide in the dark until use. • 4. […] Dilute 10 mM (in 100% DMSO) with DMSO to 5 mM (dilution 1:2). Then, dilute from 5 mM to 500 μM with H2O (dilution 1:10) and then dilute with FP buffer from 500 μM to 20 μM (dilution 1:25). […] Transfer 10 μl of serial diluted unlabeled peptides to each well which is filled with 20 μl of 300 nM of protein. • 7. Add 10 μl of 10 nM (4×) of FAM labeled peptide into each well and incubate for 3 hr to read.

Caspase 3 = Caspase 3 detection assay in SJSA1 cells; format: cell-based; conditions: 48 h, Caspase 3 activation over DMSO-treated cells; for caspase 0.3 uM: 0.3 uM peptide; for caspase 1 uM: 1 uM peptide; for caspase 3 uM: 3 uM peptide; for caspase 30 uM: 30 uM peptide; for caspase 10 uM: 10 uM peptide
MDM2 = MDM2 (Homo sapiens, UniProt Q00987); experiment: Competitive fluorescence polarization assay for MDM2; format: binding; conditions: competitive FP assay, MDM2; for IC50: read-out: IC50 (MDM2); for Ki: read-out: Ki (MDM2)
SJSA-1 cells [1] = experiment: Cell lysis by peptidomimetic macrocycles (LDH release); format: cell-based; conditions: 1 h at 37C
[2] = Circular dichroism (CD) analysis of alpha-helicity; format: physicochemical; conditions: for Molar Ellipticity 50% TFE (222 in 50% TFE): CD buffer with 50% TFE; for Molar Ellipticity 50% TFE (222 in 50% TFE) / Molar Ellipticity Benign (222 in 0% TFE): 222 nm, 4° C.; for Molar Ellipticity Benign (222 in 0% TFE): benign CD buffer pH 2, 0% TFE; for % Helix benign compared to 50% TFE parent (CD): benign buffer; for Molar Ellipticity TFE-Molar Ellipticity Benign: difference 50% TFE minus benign
Description: To assay the helicity of peptidomimetic macrocycles, the compounds are dissolved in an aqueous solution (e.g. 50 mM potassium phosphate solution at pH 7, or distilled H2O, to concentrations of 25-50 μM). Circular dichroism (CD) spectra are obtained on a spectropolarimeter (e.g., Jasco J-710) using standard measurement parameters (e.g. temperature, 20° C.; wavelength, 190-260 nm; step resolution, 0.5 nm; speed, 20 nm/sec; accumulations, 10; response, 1 sec; bandwidth, 1 nm; path length, 0.1 cm). […] A Peltier temperature controller was used to maintain temperature control of the optical cell. Results are expressed as mean molar ellipticity [0] […] Peptide concentrations were determined by amino acid analysis. Stock solutions of peptides were prepared in benign CD buffer (20 mM phosphoric acid, pH 2). The stocks were used to prepare peptide solutions of 0.05 mg/ml in either benign CD buffer or CD buffer with 50% trifluoroethanol (TFE) for analyses in a 10 mm pathlength cell. […] The average of six scans was reported.

[3] = MCF-7 xenograft study, body weight, deaths and tolerability; format: in vivo, mice
Description: A negative control stapled peptide.

[4] = test system: MCF-7 breast cancer xenograft; experiment: MCF-7 breast cancer xenograft study, tumor growth inhibition; conditions: 30 mg/kg 3×/wk iv
Description: This formulation was prepared once for the duration of the study.
Each group was assigned to a different treatment regimen.
During the dosing period the mice were weighed and tumors measured 1-2 times per week.

SJSA-1 cells [5] = experiment: Cell viability assay (MTT), SJSA-1; conditions: in words

MDM2, sequence (Q00987 1-125): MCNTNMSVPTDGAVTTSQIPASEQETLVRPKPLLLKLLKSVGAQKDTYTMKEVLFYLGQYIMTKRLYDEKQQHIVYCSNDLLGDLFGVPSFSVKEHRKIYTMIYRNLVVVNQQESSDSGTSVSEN

IC50 (MDMX)	Ki (MDMX)	IC50 (MDM2)	Ki (MDM2)	% Helix 50% TFE compared to 50% TFE parent (CD) [2]	Molar Ellipticity 50% TFE (222 in 50% TFE) [2]	Molar Ellipticity Benign (222 in 0% TFE) [2]	% Helix benign compared to 50% TFE parent (CD) [2]	Molar Ellipticity TFE-Molar Ellipticity Benign [2]	Compound	caspase 0.3 uM (Caspase 3)	caspase 1 uM (Caspase 3)	caspase 3 uM (Caspase 3)	caspase 30 uM (Caspase 3)	6.25 uM % Lysed cells (1 h LDH) (SJSA-1 cells [1])	25 uM % Lysed cells (1 h LDH) (SJSA-1 cells [1])	50 uM % Lysed cells (1 h LDH) (SJSA-1 cells [1])	caspase 10 uM (Caspase 3)	further results
100 to 1000 nM	10 to 100 nM	10 to 100 nM	< 10 nM	123.7%	−17957 deg cm2 dmol-1	−121.2 deg cm2 dmol-1	0.8%	−17835.9 deg cm2 dmol-1	CC[C@H](C)[C@H](NC(=O)[C@H](C)NC(=O)[C@H](C)NC(=O)[C@]1(C)CCC/C=C/CCCCCC[C@@](C)(NC(=O)[C@H](Cc2ccccc2)NC(=O)[C@@H](NC(=O)[C@H](CC(C)C)NC(C)=O)[C@@H](C)O)C(=O)N[C@@H](C)C(=O)N[C@@H](Cc2ccc(O)cc2)C(=O)N[C@@H](Cc2c[nH]c3ccccc23)C(=O)N[C@@H](C)C(=O)N[C@@H](CCC(N)=O)C(=O)N[C@@H](CC(C)C)C(=O)N1)C(=O)N[C@H](C)C(N)=O [compound 71]	0.95	1.02	3.68	23.52	0%	0%	0%		
				106.1%	−16623.4 deg cm2 dmol-1	−398.2 deg cm2 dmol-1	2.5%		CC(=O)N[C@@H](CC(C)C)C(=O)N[C@H](C(=O)N[C@@H](Cc1ccccc1)C(=O)N[C@]1(C)CCCCCCC=CCCC[C@@](C)(C(=O)N[C@@H](CO)C(=O)N[C@@H](C)C(=O)N[C@@H](C)C(N)=O)NC(=O)[C@H](CC(C)C)NC(=O)[C@H](CCC(N)=O)NC(=O)[C@H](C)NC(=O)[C@H](Cc2c[nH]c3ccccc23)NC(=O)[C@H](Cc2ccc(O)cc2)NC(=O)[C@H](C)NC1=O)[C@@H](C)O [compound 11]	1		5	33.5	−2%	2%	3%	23	
100 to 1000 nM	10 to 100 nM	10 to 100 nM	< 10 nM	148.2%	−21509.7 deg cm2 dmol-1	−102.6 deg cm2 dmol-1	0.7%		CCCC[C@H](NC(=O)[C@H](C)NC(=O)[C@H](C)NC(=O)[C@]1(C)CCC/C=C/CCCCCC[C@@](C)(NC(=O)[C@H](Cc2ccccc2)NC(=O)[C@@H](NC(=O)[C@H](CC(C)C)NC(C)=O)[C@@H](C)O)C(=O)N[C@@H](C)C(=O)N[C@@H](Cc2ccc(O)cc2)C(=O)N[C@@H](Cc2c[nH]c3ccccc23)C(=O)N[C@@H](C)C(=O)N[C@@H](CCC(N)=O)C(=O)N[C@@H](CC(C)C)C(=O)N1)C(=O)N[C@@H](C)C(N)=O [compound 69]	4.34	9.51	16.39	26.11	1%	−0.5%	5%	26.59	
									CC[C@H](C)[C@H](NC(=O)[C@H](C)NC(=O)[C@H](C)NC(=O)[C@]1(C)CCC/C=C/CCCCCC[C@@](C)(NC(=O)[C@H](Cc2ccccc2)NC(=O)[C@@H](NC(=O)[C@H](CC(C)C)NC(C)=O)[C@@H](C)O)C(=O)N[C@@H](CCC(=O)O)C(=O)N[C@@H](Cc2ccc(C(=O)O)cc2)C(=O)N[C@@H](Cc2c[nH]c3ccccc23)C(=O)N[C@@H](C)C(=O)N[C@@H](CCC(N)=O)C(=O)N[C@@H](CC2CCC2)C(=O)N1)C(=O)N[C@H](C)C(N)=O [SP249, Ac-L T F $er8 E F4coohWAQCba $e AA-I-a-NH2] (Ac-LTF[R8]E[Phe(4-COOH)]WAQ[Cba][S5]AAI[dA]-NH2; staple (E) 4-11)									mice died during treatment ([3]; […] 3×/wk iv, 10 mice per group): 4
10 to 100 nM	10 to 100 nM	10 to 100 nM	< 10 nM	137.3%	−19921.4 deg cm2 dmol-1	124 deg cm2 dmol-1	−0.9%	−20045.4 deg cm2 dmol-1	CC(=O)N[C@@H](CC(C)C)C(=O)N[C@H](C(=O)N[C@@H](Cc1ccccc1)C(=O)N[C@]1(C)CCCCCCC=CCCC[C@@](C)(C(=O)N[C@@H](CO)C(=O)N[C@@H](C)C(=O)N[C@@H](Cc2ccccc2)C(N)=O)NC(=O)[C@H](CC(C)C)NC(=O)[C@H](CCC(N)=O)NC(=O)[C@H](C)NC(=O)[C@H](Cc2c[nH]c3ccccc23)NC(=O)[C@H](Cc2ccc(O)cc2)NC(=O)[C@H](C)NC1=O)[C@@H](C)O [compound 7] (Ac-LTF[R8]AYWAQL[S5]SAF-NH2; staple 4-11)	0.93	1.4	5.08	23.96	0%	0%	0%	21.7	
				131.2%	−19032.6 deg cm2 dmol-1	−477.9 deg cm2 dmol-1	3.3%	−18554.7 deg cm2 dmol-1	CC(=O)N[C@@H](CC(C)C)C(=O)N[C@H](C(=O)N[C@@H](Cc1ccccc1)C(=O)N[C@]1(C)CCCCCCC=CCCC[C@@](C)(C(=O)N[C@@H](C)C(=O)N[C@@H](C)C(=O)N[C@@H](C)C(=O)N[C@@H](C)C(=O)N[C@H](C)C(N)=O)NC(=O)[C@H](CC(C)C)NC(=O)[C@H](CCC(N)=O)NC(=O)[C@H](C)NC(=O)[C@H](Cc2c[nH]c3ccccc23)NC(=O)[C@H](Cc2ccc(O)cc2)NC(=O)[C@H](C)NC1=O)[C@@H](C)O [compound 233]	6	8	17	23	2.5%	3.5%	6%	22	
10 to 100 nM	< 10 nM	< 10 nM	< 10 nM	123.9%	−17974 deg cm2 dmol-1	−213.2 deg cm2 dmol-1	1.5%	−17760.8 deg cm2 dmol-1	CC(=O)N[C@@H](CC(C)C)C(=O)N[C@H](C(=O)N[C@@H](Cc1ccccc1)C(=O)N[C@]1(C)CCCCCCC=CCCC[C@@](C)(C(=O)N[C@@H](C)C(=O)N[C@@H](C)C(=O)N[C@@H](C)C(=O)N[C@H](C)C(N)=O)NC(=O)[C@H](CC(C)C)NC(=O)[C@H](CCC(N)=O)NC(=O)[C@H](C)NC(=O)[C@H](Cc2c[nH]c3ccccc23)NC(=O)[C@H](Cc2ccc(O)cc2)NC(=O)[C@H](C)NC1=O)[C@@H](C)O (single isomer, unassigned) [compound 230]	1		2	11	0.5%	0%	3%	3	
									CC(=O)N[C@@H](CC(C)C)C(=O)N[C@H](C(=O)N[C@@H](C)C(=O)N[C@]1(C)CCCCCCC=CCCC[C@@](C)(C(=O)N[C@@H](CO)C(=O)N[C@@H](C)C(=O)N[C@@H](C)C(N)=O)NC(=O)[C@H](CC2CCC2)NC(=O)[C@H](CCC(N)=O)NC(=O)[C@H](C)NC(=O)[C@H](Cc2c[nH]c3ccccc23)NC(=O)[C@H](Cc2ccc(O)cc2)NC(=O)[C@H](CCC(=O)O)NC1=O)[C@@H](C)O [SP252]									TGI by Day 32 [4]: 88%; activity in the SJSA-1 in vitro viability assay (SJSA-1 cells [5]): no activity; activity in in vitro assays (SJSA-1 cells [5]; in vitro assays not specified): no appreciable activity; % BW Change ([3]; 30 mg/kg 3×/wk iv): +3.3%; No. with ≧10% BW Loss ([3]; 30 mg/kg 3×/wk iv): 0/10; No. with ≧20% BW Loss or death ([3]; 30 mg/kg 3×/wk iv): 0/10; tolerability of dosing regimen ([3]; 30 mg/kg 3×/wk iv, in words): well-tolerated
